Data on 13 compounds can be found in patent publication US8748598B2, “Analogs of 3-O-acetyl-11-keto-beta-boswellic acid” (Laila Nutraceuticals, priority 2004, dated 2014).

≈ marks a conversion by molar mass, not a printed value.

One may read the IC50 as the point on the concentration scale where inhibition reaches its midpoint. Lower therefore signals greater potency.

One assay deals with MDA-MB-231. Put plainly: MTT cell proliferation assay, MDA-MB-231. The class given is cell-based, human. As to conditions: Homo sapiens, MDA-MB-231; Table 2; 10 ug/ml; read-out: Inhibition of cell proliferation MDA-MB-231, % at 10 ug/ml. How it is done: (§1) MTT [3-(4,5-dimethylthiazol-2-yl)-2,5-diphenyltetrazolium bromide] incorporation based cell proliferation assay was performed as described previously (Reference). The cytotoxic efficacy of some analogs was evaluated in different cell lines by MTT cell proliferation assay kit (Roche Applied Sciences, Germany). The assay was carried out according to the instruction provided by the vendor. Briefly, in brief, equal numbers of cells was plated in 96-well flat-bottomed plates in 100 μl of medium and were exposed to different analogs selected from 1 to 63 at various concentrations up to 10 μg/ml for a period of three days. Vehicle control culture wells received only a maximum of 0.5% DMSO. Thereafter, 0.5 mg/ml of MTT reagent was added to each well and the microplate was incubated further for 4 h at 37° C. in presence of 5% CO2. Finally, the cells were solubilized by adding solubilizing solution and allowed to incubate at 37° C. overnight. After complete solubilization of the formazan crystals the absorbance was read at 540 nm in a microplate reader (BioRad, USA). The results (mean OD±SD) obtained from quadruplicate wells were used in calculation to determine the inhibition of cell proliferation (50% of inhibitory concentration, IC50) of the test compounds.
(§2) The cytotoxic properties of some analogs were evaluated by MTT incorporation assay. The methodology of the assay procedure was the same as mentioned in example 41.
For orientation: Tetrazolium assays rely on reduction of a dye to a coloured formazan, in cell work by metabolically active cells.
With `CC(=O)O[C@@H]1CC[C@@]2(C)C(CC[C@]3(C)C2C(=O)C=C2C4[C@@H](C)[C@H](C)CC[C@]4(C)CC[C@]23C)[C@@]1(C)C(=O)NC(C)C` (stereo partly drawn) [Analog 30], the inhibition at 10 µg/mL amounted to 35%.

Consider `COC(=O)CNC(=O)[C@]1(C)C2CC[C@]3(C)C(C(=O)C=C4C5[C@@H](C)[C@H](C)CC[C@]5(C)CC[C@]43C)[C@@]2(C)CC[C@H]1OC(C)=O` (stereo partly drawn) [Analog 32], for which the inhibition at 10 µg/mL was determined as 41%.

The same assay, now with this note: Homo sapiens, MDA-MB-231; Table 4.
`CC(=O)O[C@@H]1CC[C@@]2(C)C(CC[C@]3(C)C2C(=O)C=C2C4[C@@H](C)[C@H](C)CC[C@]4(C)CC[C@]23C)[C@@]1(C)C(=O)N(C)CCO` (stereo partly drawn) [Analog 45] yielded an IC50 of 12 µg/mL (≈ 21 µM).

Compound `CC(=O)O[C@@H]1CC[C@]2(C)C3=C(Cl)C=C4C5[C@@H](C)[C@H](C)CC[C@]5(C)CC[C@@]4(C)[C@]3(C)CCC2[C@@]1(C)C(=O)NCCN` (stereo partly drawn) [Analog 61] displayed an IC50 of 8.55 µg/mL (≈ 14.9 µM).

Staying with this assay, now noted: Homo sapiens, MDA-MB-231; Table 4; 10 μg/ml; read-out: Percentage Inhibition of cell proliferation MDA-MB-231.
As to `COC(=O)[C@]1(C)C2CC[C@]3(C)C(C(=O)C=C4C5[C@@H](C)[C@H](C)CC[C@]5(C)CC[C@]43C)[C@@]2(C)CC[C@H]1S` (stereo partly drawn) [Analog 15], the inhibition at 10 µg/mL was determined as 37.5%.

Regarding `CC(=O)O[C@@H]1CC[C@@]2(C)C(CC[C@]3(C)C2C(=O)C=C2C4[C@@H](C)[C@H](C)CC[C@]4(C)CC[C@]23C)[C@@]1(C)C(=O)NC(C)C` (stereo partly drawn) [Analog 30], the inhibition at 10 µg/mL is 35%.

As to `COC(=O)CNC(=O)[C@]1(C)C2CC[C@]3(C)C(C(=O)C=C4C5[C@@H](C)[C@H](C)CC[C@]5(C)CC[C@]43C)[C@@]2(C)CC[C@H]1OC(C)=O` (stereo partly drawn) [Analog 32], the inhibition at 10 µg/mL was found to be 41%.

Consider `CC(=O)O[C@@H]1CC[C@@]2(C)C(CC[C@]3(C)C2C(=O)C=C2C4[C@@H](C)[C@H](C)CC[C@]4(C)CC[C@]23C)[C@@]1(C)C(=O)N1CCOCC1` (stereo partly drawn) [Analog 37], for which the inhibition at 10 µg/mL came out at 23%.

Take `C[C@@H]1CC[C@]2(C)CC[C@]3(C)C(=CC(=O)C4[C@@]5(C)CC[C@@H](O)[C@](C)(C(=O)N6CCN(CCO)CC6)C5CC[C@]43C)C2[C@H]1C` (stereo partly drawn) [Analog 38]: the inhibition at 10 µg/mL worked out at 20%.

As to `CC(=O)O[C@@H]1CC[C@@]2(C)C(CC[C@]3(C)C2C(=O)C=C2C4[C@@H](C)[C@H](C)CC[C@]4(C)CC[C@]23C)[C@@]1(C)C(=O)NC1Cc2ccccc2C1` (stereo partly drawn) [Analog 41], the inhibition at 10 µg/mL came out at 23%.

Consider `CC(=O)O[C@@H]1CC[C@@]2(C)C(CC[C@]3(C)C2C(=O)C=C2C4[C@@H](C)[C@H](C)CC[C@]4(C)CC[C@]23C)[C@@]1(C)C(=O)Nc1ccccc1` (stereo partly drawn) [Analog 42], for which the inhibition at 10 µg/mL was found to be 6%.

With `COC(=O)CCC(NC(=O)[C@]1(C)C2CC[C@]3(C)C(C(=O)C=C4C5[C@@H](C)[C@H](C)CC[C@]5(C)CC[C@]43C)[C@@]2(C)CC[C@H]1OC(C)=O)C(=O)OC` (stereo partly drawn) [Analog 56], the inhibition at 10 µg/mL was 47%.

Still in this assay, the particulars now being: Table 4.
As for `CC(=O)O[C@@H]1CC[C@@]2(C)C(CC[C@]3(C)C2CC=C2C4[C@@H](C)[C@H](C)CC[C@]4(C)CC[C@]23C)[C@@]1(C)C(=O)NCCN` (stereo partly drawn) [Analog 51], the “IC50 values MDA-MB-231” value is recorded as “IC50 at 10.5 μg/ml”.

Staying with this assay, now noted: Table 4; 10 μg/ml.
As to `CC1CCC2(C)CCC3(C)C(=CC(=O)C4C5(C)CCC(OC(=O)CCC(=O)O)C(C)(C(=O)O)C5CCC43C)C2C1C` (stereo not drawn) [Analog 4], the “Percentage Inhibition of cell proliferation MDA-MB-231” value amounted to 40.7% at 10 μg/ml.

The test system of another assay is MCF-7. The experiment in a line: MTT cell proliferation assay, MCF-7. The conditions noted are these: Homo sapiens, MCF7; Table 2; 10 ug/ml; read-out: Inhibition of cell proliferation MCF-7, % at 10 ug/ml. The class given is cell-based, human. How it is done: as §1, §2
For `CC(=O)O[C@@H]1CC[C@@]2(C)C(CC[C@]3(C)C2C(=O)C=C2C4[C@@H](C)[C@H](C)CC[C@]4(C)CC[C@]23C)[C@@]1(C)C(=O)NC(C)C` (stereo partly drawn) [Analog 30], the inhibition at 10 µg/mL was found to be 46%.

In the case of `COC(=O)CNC(=O)[C@]1(C)C2CC[C@]3(C)C(C(=O)C=C4C5[C@@H](C)[C@H](C)CC[C@]5(C)CC[C@]43C)[C@@]2(C)CC[C@H]1OC(C)=O` (stereo partly drawn) [Analog 32], the inhibition at 10 µg/mL stood at 14%.

Still in this assay, the particulars now being: Homo sapiens, MCF7; Table 4.
On to `CC(=O)O[C@@H]1CC[C@@]2(C)C(CC[C@]3(C)C2C(=O)C=C2C4[C@@H](C)[C@H](C)CC[C@]4(C)CC[C@]23C)[C@@]1(C)C(=O)N(C)CCO` (stereo partly drawn) [Analog 45], for which the IC50 was 11.9 µg/mL (≈ 20.8 µM).

The same assay, now with this note: Homo sapiens, MCF7; Table 4; 10 μg/ml; read-out: Percentage Inhibition of cell proliferation MCF-7.
As to `COC(=O)[C@]1(C)C2CC[C@]3(C)C(C(=O)C=C4C5[C@@H](C)[C@H](C)CC[C@]5(C)CC[C@]43C)[C@@]2(C)CC[C@H]1S` (stereo partly drawn) [Analog 15], the inhibition at 10 µg/mL came to 21.6%.

As for `CC(=O)O[C@@H]1CC[C@@]2(C)C(CC[C@]3(C)C2C(=O)C=C2C4[C@@H](C)[C@H](C)CC[C@]4(C)CC[C@]23C)[C@@]1(C)C(=O)NC(C)C` (stereo partly drawn) [Analog 30], the inhibition at 10 µg/mL amounted to 46%.

For `COC(=O)CNC(=O)[C@]1(C)C2CC[C@]3(C)C(C(=O)C=C4C5[C@@H](C)[C@H](C)CC[C@]5(C)CC[C@]43C)[C@@]2(C)CC[C@H]1OC(C)=O` (stereo partly drawn) [Analog 32], the inhibition at 10 µg/mL came to 14%.

As for `C[C@@H]1CC[C@]2(C)CC[C@]3(C)C(=CC(=O)C4[C@@]5(C)CC[C@@H](O)[C@](C)(C(=O)N6CCN(CCO)CC6)C5CC[C@]43C)C2[C@H]1C` (stereo partly drawn) [Analog 38], the inhibition at 10 µg/mL is 2.73%.

Take `CC(=O)O[C@@H]1CC[C@@]2(C)C(CC[C@]3(C)C2C(=O)C=C2C4[C@@H](C)[C@H](C)CC[C@]4(C)CC[C@]23C)[C@@]1(C)C(=O)NC1Cc2ccccc2C1` (stereo partly drawn) [Analog 41]: the inhibition at 10 µg/mL was 3.74%.

Consider `CC(=O)O[C@@H]1CC[C@@]2(C)C(CC[C@]3(C)C2C(=O)C=C2C4[C@@H](C)[C@H](C)CC[C@]4(C)CC[C@]23C)[C@@]1(C)C(=O)Nc1ccccc1` (stereo partly drawn) [Analog 42], for which the inhibition at 10 µg/mL is 2.33%.

Regarding `COC(=O)CCC(NC(=O)[C@]1(C)C2CC[C@]3(C)C(C(=O)C=C4C5[C@@H](C)[C@H](C)CC[C@]5(C)CC[C@]43C)[C@@]2(C)CC[C@H]1OC(C)=O)C(=O)OC` (stereo partly drawn) [Analog 56], the inhibition at 10 µg/mL was found to be 20%.

With `CC(=O)O[C@@H]1CC[C@]2(C)C3=C(Cl)C=C4C5[C@@H](C)[C@H](C)CC[C@]5(C)CC[C@@]4(C)[C@]3(C)CCC2[C@@]1(C)C(=O)NCCN` (stereo partly drawn) [Analog 61], the inhibition at 10 µg/mL worked out at 41%.

The assay is the same for the next values; noted with them: Table 4.
As for `CC(=O)O[C@@H]1CC[C@@]2(C)C(CC[C@]3(C)C2CC=C2C4[C@@H](C)[C@H](C)CC[C@]4(C)CC[C@]23C)[C@@]1(C)C(=O)NCCN` (stereo partly drawn) [Analog 51], the “IC50 values MCF-7” value is reported as “IC50 at 9.27 μg/ml”.

Staying with this assay, now noted: Table 4; 10 μg/ml.
Consider `CC1CCC2(C)CCC3(C)C(=CC(=O)C4C5(C)CCC(OC(=O)CCC(=O)O)C(C)(C(=O)O)C5CCC43C)C2C1C` (stereo not drawn) [Analog 4], for which the “Percentage Inhibition of cell proliferation MCF-7” value is 26.6% at 10 μg/ml.

As for `CC(=O)OC1CC[C@@]2(C)C(CC[C@]3(C)C2C(=O)C=C2C4[C@@H](C)[C@H](C)CC[C@]4(C)CC[C@]23C)[C@@]1(C)C(=O)OCCN(C)C` (stereo partly drawn) [Analog 18], the “Percentage Inhibition of cell proliferation MCF-7” value came out at 5.97 at 10 μg/ml %.

The subject of the next assay is A549. The experiment in a line: MTT cell proliferation assay, A549. The class given is cell-based, human. The conditions noted are these: Homo sapiens, A549; Table 2; 10 ug/ml. How it is done:
as §1
With `CC(=O)O[C@@H]1CC[C@@]2(C)C(CC[C@]3(C)C2C(=O)C=C2C4[C@@H](C)[C@H](C)CC[C@]4(C)CC[C@]23C)[C@@]1(C)C(=O)NC(C)C` (stereo partly drawn) [Analog 30], the inhibition at 10 µg/mL stood at 18%.

The compound `COC(=O)CNC(=O)[C@]1(C)C2CC[C@]3(C)C(C(=O)C=C4C5[C@@H](C)[C@H](C)CC[C@]5(C)CC[C@]43C)[C@@]2(C)CC[C@H]1OC(C)=O` (stereo partly drawn) [Analog 32] returned an inhibition at 10 µg/mL of 10%.
